Data set [1] can be described thus: Size and zeta potential measurements (Zetasizer Nano ZS) of P704 based binary and ternary complexes. Type of data set: physicochemical. As to the method:
Size and zeta potential measurements: Particle size and zeta potential measurements of P704 based binary and ternary complexes were measured using a Zetasizer Nano ZS (Malvern Instruments Ltd.) at 25° C. Binary complexes were prepared in Tyrode's solution at a weight/weight ratio (P704/IVT-mRNA or pDNA) of 63:1. Ternary complexes were prepared in NF-water with P704 at a weight/weight ratio of 63:1 and the compound at N/P ratio of 10:1 (compound 0 (DL) and compound 8) or 5:1 (compound 4 and compound 9) using methods described above. The IVT-mRNA and pDNA concentration in both binary and ternary complexes was fixed at 10 μg/ml.
The results of physical characterizations (size and zeta potential) of P704 based binary and ternary complexes containing IVT-mRNA or pDNA are given in the following table: […]

The subject of data set [2] is 16HBE cells. The data set can be described thus: Cell endocytosis mechanism assay, uptake of Fluo-pDNA containing P704 based ternary complexes (flow cytometry). The note with it: for endocytosis of ternary complexes in presence of free compound and its fragments (competition): FIG. 11c/11d. More on the design: species or system human. As to the method:
In order to study the cellular uptake different binary and ternary complexes, 16 HBE cells (7×10^5/well) were seeded in 6-well plate 24 h before investigation. P704 based binary complexes were prepared by mixing P704 at the concentration of 63 (w/w) with Fluo-pDNA in Tyrode's solution. Compound 9 based binary complexes were prepared by mixing compound 9 at the N/P ratio of 5 with Fluo-pDNA in NF-water. P704 based ternary complexes consisted of P704 at the concentration of 63 (w/w), compound 0 (DL) or compound 9 at optimum N/P ratio and Fluo-pDNA. P304 based ternary complexes consisted of P304 at the concentration of 2000 (w/w), compound 8 at N/P ratio of 20 and Fluo-pDNA. P90R4 based ternary complexes consisted of P90R4 at the concentration of 1600 (w/w), compound 8 at N/P ratio of 15 and Fluo-pDNA. The amount of Fluo-pDNA in each sample was 4 μg/well. Naked Fluo-pDNA was served as a negative control. After 4 h incubation, medium was removed. The cells were harvested and rinsed with cold PBS for three times followed immediately by flow cytometry analysis. The amount of 10 000 live cells was collected for each sample.
With the purpose of identifying possible internalization mechanisms of ternary complexes by human bronchial epithelium cells, 16 HBE cells were pre-incubated at different temperatures or treated with specific agents at 37° C. for 1 h, then incubated with P704 based ternary complexes in the same conditions as described above. (I, II) To examine the effects of chlorpromazine and filipin, which were the clathrin- and caveolae-dependent endocytosis inhibitors, 10 μg/ml chlorpromazine or 1 μg/ml filipin in OptiMEM were used. (III) To study the effect of amiloride (macropinocytosis inhibitor), 0.3 mg/ml amiloride was adopted. (IV) To investigate the effect of protamine, an adsorptive-mediated endocytosis inhibitor, 1 mM protamine sulfate was added. […]
A general note: Flow cytometry measures light scatter and fluorescence of single cells or particles in a stream.

For data set [3], the system named is airway epithelium cells. The data set can be described thus: In vitro transfection study on cultured airway epithelium cells (luciferase, RLU/mg cellular protein). The note with it: ternary complexes formed by P704, a nucleic acid and the compound. Type of data set: cell-based. As for the experimental part: In vitro transfection: For the luciferase assay, cells were seeded at a density of 1.8×10^4/well (BEAS-2B) or 3.5×10^4/well (16HBE) in 96-well plates 24 h before transfection to reach 60-80% confluence. Following removal of growth medium, cells were rinsed with DPBS (Gibco, Germany). 170 μl of fresh serum-free OptiMEM (Gibco, Germany) were added per well, and subsequently 30 μl of IVT-mRNA or pDNA containing complexes prepared, as described above, corresponding to 400 ng IVT-mRNA or pDNA per well, were added in replicates of five. After 4 h of incubation at 37° C. in a humidified 5% CO2-containing atmosphere, the transfection medium was replaced with culture medium supplemented with 10% FBS and 1% (v/v) penicillin/streptomycin. […] assayed with Metridia luciferase substrate (coelenterazine, Invivogen, France) after 24 h using a FLUOstar microplate reader (BMG Labtech, […]). In all cases each sample was measured on at least two other occasions to ensure the reproducibility of the data.

The test system of data set [4] is 16HBE cells. Nature of the data set: In vitro transfection, Metridia luciferase assay in 16HBE cells. The note with it: day 2. The class given is cell-based, human.

The star is where a group is joined. ξ: configuration not given here. Lipoyl(6ξ) = O=C(CCCCC1CCSS1)*

With “KETWWETWWTEWWTEW-KKKKRRRRRKKKK-GACSERSMNFCG (KETWWETWWTEWWTEWKKKKRRRRRKKKKGACSERSMNFCG) [compound 9]”, in data set [1], the “particle size of ternary complex compared with other counterparts” value was “slightly smaller”. Further, the “cell uptake of ternary complexes at 4° C. and in the presence of NaN3” value in data set [2] (FIG. 11a) is recorded as “Energy-dependent cell uptake”. Besides, the “endocytosis of ternary complexes in presence of free compound and its fragments (competition)” value in data set [2] is “inhibited by free compound 9 and free peptide GACSERSMNFCG”.

For the substance “NH2-VKRKKKPKKRRRRKKWK(DL-lipoic acid)-CONH2 (H-VKRKKKPKKRRRRKKWK(Lipoyl(6ξ))-NH2; SMILES CC(C)[C@H](N)C(=O)N[C@@H](CCCCN)C(=O)N[C@@H](CCCNC(=N)N)C(=O)N[C@@H](CCCCN)C(=O)N[C@@H](CCCCN)C(=O)N[C@@H](CCCCN)C(=O)N1CCC[C@H]1C(=O)N[C@@H](CCCCN)C(=O)N[C@@H](CCCCN)C(=O)N[C@@H](CCCNC(=N)N)C(=O)N[C@@H](CCCNC(=N)N)C(=O)N[C@@H](CCCNC(=N)N)C(=O)N[C@@H](CCCNC(=N)N)C(=O)N[C@@H](CCCCN)C(=O)N[C@@H](CCCCN)C(=O)N[C@@H](Cc1c[nH]c2ccccc12)C(=O)N[C@@H](CCCCNC(=O)CCCCC1CCSS1)C(N)=O) [compound 0 (DL)]”, in data set [3], the “transfection efficiencies of ternary complexes with compound 0 (DL) versus compound 0 (R)” value is “similar”. Besides, in data set [4], the “pDNA expression compared with compound 3 containing ternary complex” value is “similar”. Moreover, the “endocytosis of ternary complexes in presence of free compound and its fragments (competition)” value in data set [2] was “cannot be inhibited by free compound 0 (DL) and its fragment sequence”.

The record behind these values is patent US11077205B2, “Synthetic compound for improving efficiency of transfection” (Klinikum der Universität München, priority 2016, dated 2021).
